Values quoted from earlier work as cited in EP2497775A1, “Ferrocene-based compounds and their use as ROS regulating prodrugs” (Ruprecht-Karls-Universität Heidelberg, priority 2011, dated 2012).
pIC50: −log10 of the molar value.

Key:
[1] = system: different neuroblastoma cell lines; conditions: ref. [2]; cited from earlier work
8226 (Human myeloma) = conditions: ref. [1]; cited from earlier work
(Human, breast) = conditions: ref. [1]; cited from earlier work
WiDr (Human, colon) = conditions: ref. [1]; cited from earlier work
HT29 (Human, colon) = conditions: ref. [4]; cited from earlier work
SW480 (Human, colon) = conditions: ref. [3]; cited from earlier work
HL-60 (leukemia) = conditions: ref. [8]; cited from earlier work
HCT8 (colon) = conditions: ref. [8]; cited from earlier work
Human multiple myeloma = conditions: ref. [7]; cited from earlier work

Q: With CCCCS(=N)(=O)CCC(N)C(=O)O (stereo not drawn) [Buthionine sulfoximine (BSO), Buthionine sulfoximine] as the compound, how does the pIC50 [1] read?
A: 3.51 to 6.52

Q: And the pIC50 (8226 (Human myeloma))?
A: 5.70

Q: What about the pIC50 ((Human, breast)) of the same compound?
A: 3.07

Q: What about the pIC50 (WiDr (Human, colon)) of the same compound?
A: 3.35

Q: Which results are given for CC(=O)Oc1ccccc1C(=O)Oc1cccc(CO[N+](=O)[O-])c1 [NO-ASA]?
A: pIC50 (HT29 (Human, colon)): 5.15 to 5.52; pIC50 (SW480 (Human, colon)): 4.07

Q: With CC1(C)CCC2=C(O1)c1ccccc1C(=O)C2=O [β-Lapachone] as the compound, how does the pIC50 (HL-60 (leukemia)) read?
A: 5.78

Q: And the pIC50 (HCT8 (colon))?
A: 6.08

Q: And the pIC50 (Human multiple myeloma)?
A: 6.00
